Laboratory results: patent US5656422A, “Compositions and methods for detection of 2,4-dichlorophenoxyacetic acid and related compounds” (Idaho Research Foundation, Inc., priority 1994, dated 1997)

What was measured:
[1] = target: T1, 2,4-D α-ketoglutarate dioxygenase (Cupriavidus pinatubonensis, UniProt P10088); test: Enzyme activity and kinetics of recombinant DDO in cell-free extract (DCP production, 4-aminoantipyrine method)
Source text: (§1) Effect of pH on enzyme activity. Since the color reaction by the 4-aminoantipyrine method is almost instantaneous, the conversion rate of 2,4-D into DCP determines the response time for 2,4-D detection. Higher reaction rates result in smaller response times or less enzyme needed for 2,4-D detection. […] However, the preferred pH for the color reaction is in the range of pH 8.0 to 12.0. […] More importantly, 4-aminoantipyrine reacts with potassium ferricyanide at pH 6.5, producing a slight color change that is similar to having 2 mg/l DCP in solutions. Although pH 6.5 can be used for the enzymatic reaction if the pH of the solution is subsequently adjusted for the color reaction, this is less convenient.
(§2) Effect of Fe^2+ on enzyme activity. […] This saturation concentration should be a function of enzyme concentration used. In order to maximize enzyme activity, a higher ferrous ion concentration, such as 100 μM, should be used for 2,4-D detection.
(§3) Kinetics of enzymatic reaction. […] Since oxygen cannot be controlled in the process of 2,4-D detection, oxygen was not considered in the model. Kinetic data were measured at pH 8.0, 100 mM Fe^2+ and room temperature (20° C.), as shown in the Lineweaver-Burk plots in FIGS. 18A and 18B.
(§4) The values of model parameters were determined from double reciprocal plots.

[2] = target: T1, 2,4-D α-ketoglutarate dioxygenase; parameters: made in house; host or cells: E. coli DH5α (pYG3), cell-free extract; details: cited from earlier work
[3] = test system: E. coli DH5α (pYG3); test: Induction of enzyme production by IPTG in E. coli DH5α (pYG3); assay type: cell-based
Procedure: Growth and maintenance of E. coli DH5α (pYG3). E. coli DH5α (pYG3), a strain specifically constructed for 2,4-D detection (Example 1), was routinely maintained on LB plates with 75 mg/l of ampicillin and stored at 4° C. Yeast extract was used as a carbon and energy source for E. coli DH5α (pYG3) with 50 mg/l of ampicillin for selective pressure. Batch cultures of E. coli DH5α (pYG3) were carried out in 1000 ml flasks with 400 ml media for the optimization of media and operating condition. The media were directly inoculated by a single colony on a LB plate. The flasks were shaken on a rotary shaker at 200 rpm and incubated at 30° C. or 37° C.
DCP concentration was measured by the 4-aminoantipyrine method (E. Emerson, J. Org. Chem. 1943, 8, 417-419). In place of 2,4-D, phenoxyacetic acid was used for P. aeruginosa PAO1 (pRO103).
Preparation of cell-free extracts. E. coli cultures (10 or 15 ml) were harvested by centrifugation (8,000×g) for 10 minutes, washed using 5 ml of 100 mM sodium phosphate buffer (pH 8.0), then resuspended in 3 ml of phosphate buffer. Cell-free extracts were obtained by passing the cells once through a pre-chilled French press at 1500 psi and clarifying the debris by centrifugation (16,000×g) for 20 minutes at 4° C.
IPTG concentration. IPTG was used as the inducer of the lacZ promoter which regulated the expression of tfdA in pYG3 (Example 1). […]

[4] = test system: O=C(O)COc1ccc(Cl)cc1Cl; test: cells, lysate or membranes named; details: other: 20° C., pH 8.0, 50 μM Fe^2, cell-free extract
Source text: as §1, §2, §3, §4

[5] = test system: O=C(O)CCC(=O)C(=O)O; test: cells, lysate or membranes named; details: other: 20° C., pH 8.0, 50 μM Fe^2, cell-free extract

T1 sequence (P10088 whole entry): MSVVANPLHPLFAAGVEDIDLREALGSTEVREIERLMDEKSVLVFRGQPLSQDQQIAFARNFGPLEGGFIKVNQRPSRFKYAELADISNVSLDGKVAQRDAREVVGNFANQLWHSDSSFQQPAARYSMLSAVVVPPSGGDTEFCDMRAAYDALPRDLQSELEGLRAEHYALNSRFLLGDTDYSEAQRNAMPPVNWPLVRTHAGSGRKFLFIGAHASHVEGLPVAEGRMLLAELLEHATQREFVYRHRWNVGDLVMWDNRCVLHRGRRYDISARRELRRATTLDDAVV

## 2,4-D α-ketoglutarate dioxygenase [DDO]
[1]; 20° C., pH 8.0, 50 μM Fe^2, cell-free extract of E. coli DH5α (pYG3)
  Vmax: 2.0 µmol/min/mg
[1]; conversion of 2,4-D into DCP
  optimum pH for the enzymatic reaction: 6.5

## O=C(O)COc1cc(Cl)c(Cl)cc1Cl [2,4,5-T, (2,4,5,-trichlorophenoxy)acetic acid]
[2]
  cleavage by DDO: does not cleave

## CC(C)S[C@@H]1O[C@H](CO)[C@H](O)[C@H](O)[C@H]1O [IPTG, isopropyl β-D-thiogalactopyranoside]
[3]; E. coli DH5α (pYG3)
  saturation IPTG concentration for enzyme production: approximately 150 mg/l
[3]; Escherichia coli, at saturation IPTG concentration, approximately 150 mg/l, read-out: enzyme productivity higher than without IPTG
  activation at 150 µg/mL: ~40%

## Cc1ccccc1OCC(=O)O [2-methylphenoxyacetic acid]
[2]
  cleavage by DDO: cleaves

## [Fe+2] [ferrous ions]
[1]; cell-free extract
  saturation concentration of ferrous ion for enzyme activity: 50 µM

## 2,4-D α-ketoglutarate dioxygenase (Cupriavidus pinatubonensis JMP134)
[4]
  Km: 107 µM
[5]
  Km: 55 µM

## O=C(O)COc1ccccc1 [phenoxyacetic acid]
[2]
  cleavage by DDO: cleaves the side chain

## Cc1cc(Cl)ccc1OCC(=O)O [MCPA, 4-chloro-2-methyl-phenoxyacetic acid]
[2]
  cleavage by DDO: cleaves the side chain
